In brackets after ≈: the same amount, converted by molar mass.

In data set [1] the target is T1, Bifunctional epoxide hydrolase 2 (Homo sapiens) (UniProt P34913).
T1 sequence (whole entry): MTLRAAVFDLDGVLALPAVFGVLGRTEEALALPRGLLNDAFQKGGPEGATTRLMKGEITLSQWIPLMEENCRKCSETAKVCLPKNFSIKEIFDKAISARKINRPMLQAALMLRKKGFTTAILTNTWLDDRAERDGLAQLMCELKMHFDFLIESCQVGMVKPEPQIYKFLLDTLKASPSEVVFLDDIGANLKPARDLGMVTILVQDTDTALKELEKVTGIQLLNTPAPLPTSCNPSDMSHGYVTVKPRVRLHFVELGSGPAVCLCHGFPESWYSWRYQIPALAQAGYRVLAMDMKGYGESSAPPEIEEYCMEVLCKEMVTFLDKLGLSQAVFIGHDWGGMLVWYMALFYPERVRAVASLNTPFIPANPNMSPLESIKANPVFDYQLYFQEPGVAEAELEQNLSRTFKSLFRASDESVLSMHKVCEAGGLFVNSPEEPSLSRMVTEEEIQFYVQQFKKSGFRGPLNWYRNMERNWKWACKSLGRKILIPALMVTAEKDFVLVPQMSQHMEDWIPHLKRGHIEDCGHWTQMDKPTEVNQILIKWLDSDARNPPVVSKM
The data set is described as follows: Inhibition of recombinant human sEH at 100 nM using PHOME as substrate measured after 15 mins by fluorescence assay relative to control.

Data set [2] in a line: in vitro. The following applies: Sprague-Dawley, rat, liver microsomes. For orientation: Liver microsomes are vesicles of endoplasmic reticulum, rich in cytochrome P450 enzymes.
Description: Stability in Sprague-Dawley rat liver microsomes assessed as parent compound remaining at 10 uM measured after 60 mins in absence of NADPH regenerating system by HPLC analysis
Data set [3] relates to Mus musculus. The data set is described as follows: Antiinflammatory activity in BALB/c mouse model of carrageenan-induced paw edema assessed as paw edema at 100 mg/kg, ip pretreated for 1 hr followed by carrageenan challenge and measured after 3 hrs by caliper method relative to control. Type of data set: functional. The following applies: time 4 hrs.
The test system of data set [4] is Mus musculus. The data set is described as follows: Antiinflammatory activity in BALB/c mouse model of carrageenan-induced paw edema assessed as paw edema at 100 mg/kg, ip pretreated for 1 hr followed by carrageenan challenge and measured after 4 hrs by caliper method relative to control. Type of data set: functional. The following applies: time 5 hrs. (In general: The carrageenan paw model is a standard test of acute inflammation.)

Data set [5] concerns Mus musculus. The data set is described as follows: Antiinflammatory activity in BALB/c mouse model of carrageenan-induced paw edema assessed as paw edema at 100 mg/kg, ip pretreated for 1 hr followed by carrageenan challenge and measured after 2 hrs by caliper method relative to control. Type of data set: functional. The following applies: time 3 hrs.
Data set [6] is described as follows: in vitro. The following applies: Sprague-Dawley, rat, liver microsomes. This is another data set of the same source.
The subject of data set [7] is Mus musculus. The data set is described as follows: Antiinflammatory activity in BALB/c mouse model of carrageenan-induced paw edema assessed as paw thickness at 100 mg/kg, ip pretreated for 1 hr followed by carrageenan challenge and measured after 2 hrs by caliper method (reference value: 3.56 +/- 0.29 millimeter). Format: functional. The following applies: time 3 hrs.

For data set [8], the target named is T2, Bifunctional epoxide hydrolase 2 (Homo sapiens, UniProt P34913).
T2 sequence (P34913 whole entry): T1 sequence (whole entry)
The data set is described as follows: Inhibition of recombinant human sEH using PHOME as substrate measured after 15 mins by fluorescence assay.

In data set [9] the test system is Mus musculus. The data set is described as follows: Antiinflammatory activity in BALB/c mouse model of carrageenan-induced paw edema assessed as paw thickness at 100 mg/kg, ip pretreated for 1 hr followed by carrageenan challenge and measured after 3 hrs by caliper method (reference value: 3.61 +/- 0.36 millimeter). Type of data set: functional. The following applies: time 4 hrs.

A short description of data set [10]: in vitro. The following applies: Sprague-Dawley, rat, liver microsomes. This is another data set of the same source.
The test system of data set [11] is Mus musculus. Briefly: Antiinflammatory activity in BALB/c mouse model of carrageenan-induced paw edema assessed as paw edema at 100 mg/kg, ip pretreated for 1 hr followed by carrageenan challenge and measured after 1 hr by caliper method relative to control. Format: functional. The following applies: time 2 hrs.
The nature of data set [12]: Solubility of compound in pH 7.4 PBS buffer measured after 2 hrs by turbidimetric assay. Format: physicochemical.
Data set [13] concerns Mus musculus. The data set is described as follows: Antiinflammatory activity in BALB/c mouse model of carrageenan-induced paw edema assessed as paw thickness at 100 mg/kg, ip pretreated for 1 hr followed by carrageenan challenge and measured after 1 hr by caliper method (reference value: 3.51 +/- 0.19 millimeter). Type of data set: functional. The following applies: time 2 hrs.

Data set [14] in a line: in vitro. The following applies: Sprague-Dawley, rat, liver microsomes. This is another data set of the same source.
Description: Stability in Sprague-Dawley rat liver microsomes assessed as parent compound remaining at 10 uM measured after 60 mins in presence of NADPH regenerating system by HPLC analysis
The nature of data set [15]: in vitro. The following applies: Sprague-Dawley, rat, liver microsomes. The source holds these as a separate data set.
Description: Half life in Sprague-Dawley rat liver microsomes at 10 uM measured up to 60 mins in presence of NADPH regenerating system by HPLC analysis
Data set [16] relates to Mus musculus. The data set is described as follows: Antiinflammatory activity in BALB/c mouse model of carrageenan-induced paw edema assessed as paw thickness at 100 mg/kg, ip pretreated for 1 hr followed by carrageenan challenge and measured after 4 hrs by caliper method (reference value: 3.60 +/- 0.12 millimeter). Type of data set: functional. The following applies: time 5 hrs.

Data set [17] concerns HepG2. Briefly: Cytotoxicity against human HepG2 cells assessed as reduction in cell viability measured after 48 hrs by MTT assay. The following applies: HepG2, 48 h. Format: cell-based. In general terms: Tetrazolium assays rely on reduction of a dye to a coloured formazan, in cell work by metabolically active cells.
The target in data set [18] is T1, Bifunctional epoxide hydrolase 2 (Homo sapiens). Briefly: Mixed-type inhibition of recombinant human sEH assessed as inhibitor dissociation constant using PHOME as substrate measured after 15 mins by fluorescence based Lineweaver-burk plot analysis.
Data set [19] has as its target T2, Bifunctional epoxide hydrolase 2. Briefly: Mixed-type inhibition of recombinant human sEH using PHOME as substrate measured after 15 mins by fluorescence based Lineweaver-burk plot analysis.
For data set [20], the target named is T1, Bifunctional epoxide hydrolase 2 (Homo sapiens). Briefly: Potency index, ratio of t-AUCB IC50 to test compound IC50 for recombinant human sEH.

Usually inhibition stands for the drop in the measured response relative to a control, in per cent. For orientation: microsomal CLint means the capacity of the preparation to metabolise the compound, expressed as a volume cleared per time. The low end stands for slow turnover, the high end for rapid turnover. By IC50 is commonly meant the concentration that inhibits the measured activity by half. As usually defined, the solubility (kinetic) is the concentration staying in solution when a stock, usually in DMSO, is diluted into the medium. As a reminder, the half-life is the time in which the quantity being followed falls by half. Read a low half-life as fast loss. Consider `Nc1nc2ccc(N(CCN3CCOCC3)C(=O)Nc3ccc(Cl)cc3)cc2s1`, for which the inhibition in data set [1] is 89.1%. Also, the amount remaining at 1 h, 10 µM in data set [2] was 99.5%; in data set [14], 30.1%. In addition, the Activity was determined as 21.64% in data set [3]; 23.39% in data set [4]; 19.06% in data set [5]; 3.06 mm in [7]; 3.13 mm in [9]; 20.99% in data set [11]. Also, the Activity is on record as 3.11 mm in data set [13] and 3.17 mm in [16]. The microsomal CLint at 1 h, 10 µM came out at 40 µL/min/mg in data set [6] and 71.9 µL/min/mg in data set [10]. In addition, the half-maximal inhibitory concentration (IC50) was 2.8 nM in data set [8] and above 25000 nM in data set [17]. In addition, in data set [12], the kinetic solubility at 2 h was determined as 39 µg/mL (≈ 90.3 µM). In [15], the half-life at 1 h, 10 µM is 34.7 min.
Turning to `O=C(NC12CC3CC(CC(C3)C1)C2)N[C@H]1CC[C@H](Oc2ccc(C(=O)O)cc2)CC1`, the Activity in data set [3] was 24.98%; in data set [4], 24.71%; in data set [5], 22.61%; in data set [7], 3.23 mm; in [9], 3.29 mm; in [11] it was 25.01%. Besides, the values for the Activity in data set [13] and in data set [16] were 3.3 mm and 3.28 mm, respectively.
A word on the Ki: it is a dissociation constant, usually derived from enzyme kinetics or from competition with a known ligand. As to `O=C(Cc1ccccc1)Nc1nc2ccc(N(CCN3CCOCC3)C(=O)Nc3ccc(Cl)cc3)cc2s1`, the inhibition in data set [1] is 84.7%. Besides, the share remaining at 1 h, 10 µM in [2] was determined as 116%; in data set [14], 0%. In addition, the Activity in data set [3] is listed as 16.48%; in [4], 20.32%; in [5] it was 17.58%; in data set [7], 3.22 mm; in data set [9], 3.19 mm; in [11], 21.56%. In addition, the Activity was 3.33 mm in data set [13] and 3.3 mm in data set [16]. Also, the microsomal CLint at 1 h, 10 µM is 820 µL/min/mg in [6] and 1480 µL/min/mg in data set [10]. Further, the IC50 is 0.082 nM in data set [8] and above 25000 nM in data set [17]. For the same compound, the Kdiss in data set [18] stood at 23.1 nM. The solubility (kinetic) at 2 h in [12] was determined as 61 µg/mL (≈ 111 µM). The compound further yielded a half-life at 1 h, 10 µM in data set [15] of 1.7 min. Moreover, the inhibition constant Ki in data set [19] is 4.77 nM.
Take `Nc1nc2ccc(N(CCN3CCOCC3)C(=O)Nc3ccc(F)c(Br)c3)cc2s1`: in data set [1], the inhibition came out at 90.5%. For the same compound, the fraction remaining at 1 h, 10 µM in data set [2] was 85%; in [14] it was 36.2%. Besides, the Activity in [3] is 27.39%; in [4], 27.12%; in [5] it was 31.49%; in data set [7], 3.16 mm; in [9] it was 3.06 mm; in data set [11], 30.86%. The Activity in [13] came to 3.15 mm; in data set [16], 3.06 mm. In addition, the intrinsic metabolic clearance (microsomal CLint) at 1 h, 10 µM turned out to be 31 µL/min/mg in [6] and 55.8 µL/min/mg in [10]. Further, the kinetic solubility at 2 h in [12] stood at 68 µg/mL (≈ 138 µM). The half-life at 1 h, 10 µM in [15] turned out to be 44.7 min. The IC50 in data set [17] is above 25000 nM.
In the case of `O=C(Nc1ccc(Cl)cc1)Nc1nc2ccc(N(CCN3CCOCC3)C(=O)Nc3ccc(Cl)cc3)cc2s1`, the inhibition in [1] amounted to 90.2%. Also, the Ratio IC50 in data set [20] turned out to be 67. Also, the IC50 in data set [8] is 0.1 nM. Also, the kinetic solubility at 2 h in data set [12] was 30 µg/mL (≈ 51.2 µM).

For the origin of these results see ChEMBL document CHEMBL4706628, “Ligand-based optimization to identify novel 2-aminobenzo[d]thiazole derivatives as potent sEH inhibitors with anti-inflammatory effects” (Eur J Med Chem, 2021).
